Measured values: ChEMBL document CHEMBL2390861, “Caffeic acid derivatives: a new type of influenza neuraminidase inhibitors” (Bioorg Med Chem Lett, 2013)

Assays:
[1] = Cytotoxicity against chicken embryo fibroblast after 2 days by MTS assay; type: cell-based, Gallus gallus; settings: chicken embryo fibroblasts
Influenza A virus = assay: Antiviral activity against Influenza A virus (A/chicken/Sandong/Li/2008(H9N2)) infected in chicken embryo fibroblast assessed as protection against virus-induced cytopathic effect after 2 days by MTS assay; type: functional, organism-based; settings: 48 h
Neuraminidase [2] = target: T1, Neuraminidase (Influenza A virus, UniProt B4URF0); assay: Inhibition of Influenza A virus H1N1 A/duck/China/QJ/01 neuraminidase N1 using 4-MU-NANA as substrate after 5 mins by fluorescence assay
Neuraminidase [3] = target: T1, Neuraminidase; assay: Inhibition of Influenza A virus (A/chicken/Sandong/Li/2008(H9N2)) neuraminidase N2 using 4-MU-NANA as substrate after 5 mins by fluorescence assay
[4] = target: Neuraminidase (Influenza A virus) (UniProt B4URF0); assay: Inhibition of Influenza A virus H1N1 A/duck/China/QJ/01 neuraminidase N1 using 4-MU-NANA as substrate at 100 uM after 5 mins by fluorescence assay
Neuraminidase [5] = target: T1, Neuraminidase; assay: Inhibition of Influenza A virus H1N1 neuraminidase
Neuraminidase [6] = target: T1, Neuraminidase; assay: Non-competitive inhibition of Influenza A virus (A/chicken/Sandong/Li/2008(H9N2)) neuraminidase N2 using 4-MU-NANA as substrate by Lineweaver-Burk plot analysis
Neuraminidase [7] = target: T1, Neuraminidase; assay: Inhibition of Influenza A virus H9N2 neuraminidase

SMILES	CC50 at 48 h [1] [µM]	IC50 (Neuraminidase [2]) [µM]	IC50 (Neuraminidase [3]) [µM]	other results
CCOC(=O)C1=C[C@@H](OC(CC)CC)[C@H](NC(C)=O)[C@@H](N)C1 [OSELTAMIVIR]	> 10	–	–	EC50 (Influenza A virus): 0.5 µM
O=C(O)CCNC(=O)/C=C/c1ccc(O)c(O)c1	> 100	27.3	13.5	EC50 (Influenza A virus): > 100 µM
O=C(/C=C/c1ccccc1)Nc1ccc(O)c(NC(=O)C2CC2)c1	–	–	–	inhibition [4]: 42.6%
O=C(O)CNC(=O)/C=C/c1ccc(O)c(O)c1	–	49.5	43.3	–
CC(C)C(=O)Nc1cc(NC(=O)/C=C/c2ccc(O)c(O)c2)ccc1O	–	19	20.4	–
CCC(CC)C(=O)Nc1cc(NC(=O)/C=C/c2ccc(O)c(O)c2)ccc1O	> 100	22.8	20.7	EC50 (Influenza A virus): 22.6 µM
O=C(/C=C/c1ccc(O)c(O)c1)NCCC[C@H](NC(=O)Cc1ccccc1)C(=O)O	87.7	30.2	28.1	–
COc1cc(O)ccc1C(=O)/C=C/c1ccc(O)cc1	–	–	–	IC50 (Neuraminidase [5]): 24.3 µM
CCC(=O)Nc1cc(NC(=O)/C=C/c2ccccc2)ccc1O	–	–	–	inhibition [4]: 42.9%
CCC(=O)N[C@@H](CCCNC(=O)/C=C/c1ccc(O)c(O)c1)C(=O)O	–	31.3	37.9	–
O=C(O)CCCNC(=O)/C=C/c1ccc(O)c(O)c1	–	27.7	16.8	–
O=C(/C=C/c1ccc(O)c(O)c1)N[C@@H](Cc1c[nH]c2ccccc12)C(=O)O	89.5	30.1	27.2	EC50 (Influenza A virus): > 100 µM
CC(C)(C)OC(=O)N[C@@H](CCCNC(=O)/C=C/c1ccc(O)c(O)c1)C(=O)O	–	34.7	33.6	–
CCC(CC)C(=O)Nc1cc(NC(=O)/C=C/c2ccc(O)c(O)c2)ccc1OCC(=O)O	> 100	8.5	7.2	Ki (Neuraminidase [6]): 11.5 µM; EC50 (Influenza A virus): 31.2 µM
O=C(/C=C/c1ccc(O)cc1)CC(=O)/C=C/c1ccc(O)c(O)c1	–	–	–	IC50 (Neuraminidase [7]): 64.1 µM
CC(=O)Nc1cc(NC(=O)/C=C/c2ccc(O)c(O)c2)ccc1OCC(=O)O	60.4	12.2	15.4	–
CC(C)C(=O)Nc1cc(NC(=O)/C=C/c2ccccc2)ccc1O	–	–	–	inhibition [4]: 47.2%
CCC(CC)C(=O)Nc1cc(NC(=O)/C=C/c2ccccc2)ccc1O	–	–	–	inhibition [4]: 45.2%
CCC(=O)Nc1cc(NC(=O)/C=C/c2ccc(O)c(O)c2)ccc1O	> 100	17.6	23.6	EC50 (Influenza A virus): 58.6 µM
CC(C)C(=O)N[C@@H](CCCNC(=O)/C=C/c1ccc(O)c(O)c1)C(=O)O	65	31.9	30.3	–
CC(=O)Nc1cc(NC(=O)/C=C/c2ccccc2)ccc1O	–	–	–	inhibition [4]: 40.2%
O=C(/C=C/c1ccc(O)c(O)c1)CC(=O)/C=C/c1ccc(O)c(O)c1	–	–	–	IC50 (Neuraminidase [7]): 63.8 µM
O=C(/C=C/c1ccc(O)c(O)c1)N[C@@H](Cc1ccccc1)C(=O)O	–	37.4	39.6	–
CC(C)[C@H](NC(=O)/C=C/c1ccc(O)c(O)c1)C(=O)O	–	38.3	37.3	–
CC(C)C(=O)Nc1cc(NC(=O)/C=C/c2ccc(O)c(O)c2)ccc1OCC(=O)O	94.3	11.6	13	–
O=C(/C=C/c1ccc(O)c(O)c1)NCCC[C@H](NC(=O)c1ccccc1)C(=O)O	–	34.3	37.2	–
O=C(O)COc1ccc(NC(=O)/C=C/c2ccc(O)c(O)c2)cc1NC(=O)C1CC1	86.7	13.8	16.5	–
O=C(/C=C/c1ccc(O)c(O)c1)Nc1ccc(O)c(NC(=O)C2CC2)c1	–	18.2	24.7	–
CC(=O)Nc1cc(NC(=O)/C=C/c2ccc(O)c(O)c2)ccc1O	78.2	17.7	27.4	–
CCC(CC)C(=O)N[C@@H](CCCNC(=O)/C=C/c1ccc(O)c(O)c1)C(=O)O	–	39.2	44.2	–
